Data from paper PMC12669672, “Structural insights into selective and dual antagonism of EP2 and EP4 prostaglandin receptors” (The EMBO Journal, 2025).
Values joined by “and” are separate entries in the source; they are usually repeats but may differ in a detail not shown here. Equal entries are not always repeated. “Also recorded” adds a separate entry of the source. Where two headings read alike, the source gives them in different places.

Assays:
Type in all cases: cell-based
[1] = molecular target: EP2 WT (Homo sapiens, UniProt P43116); test: GloSensor cAMP assay, antagonism of PGE2-induced cAMP; design: The full-length EP2 or EP4 was cloned into the pcDNA3.1 vector; FLAG (N); expressed in transfected cells; host or cells: AD293 cells; conditions: 1 h, single experiments 1st-3rd, Fig. S1A
Sequence of EP2 WT (P43116 whole entry): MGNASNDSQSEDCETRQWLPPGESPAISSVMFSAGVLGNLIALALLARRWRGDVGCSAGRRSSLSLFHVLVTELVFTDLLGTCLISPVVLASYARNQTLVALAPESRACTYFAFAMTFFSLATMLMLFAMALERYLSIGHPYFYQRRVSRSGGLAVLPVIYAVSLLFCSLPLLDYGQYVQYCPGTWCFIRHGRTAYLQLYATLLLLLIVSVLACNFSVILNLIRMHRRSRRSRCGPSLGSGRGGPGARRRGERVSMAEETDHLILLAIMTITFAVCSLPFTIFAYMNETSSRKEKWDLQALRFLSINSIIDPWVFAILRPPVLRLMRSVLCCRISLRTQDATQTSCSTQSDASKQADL
Protocol: (§1) The full-length EP2 or EP4 was cloned into the pcDNA3.1 vector (Invitrogen), incorporating an N-terminal FLAG tag. AD293 cells were seeded in six-well plates containing DMEM supplemented with 10% dialyzed FBS 1 day prior to transfection. Following overnight growth, cells were transfected with a 1:1 ratio of receptor construct and GloSensor22F cAMP biosensor (Promega) plasmids.
(§2) Twenty-four hours post-transfection, the cells were transferred to CO2-independent media containing 2% GloSensor cAMP Reagent (Promega) and distributed into 384-well assay plates at a density of 4000 cells per well in 10 μL. […] The plates were then incubated at 37 °C for an additional hour before luminescence measurements were taken using an EnVision plate reader.
(§3) Data analysis was performed using GraphPad Prism software v8.0.1. A nonlinear regression analysis, employing a sigmoidal dose–response model, was conducted to determine the Emax values and half-maximum inhibitory concentrations (IC50) for each compound tested.

[2] = molecular target: T1, EP4 WT (Homo sapiens, UniProt P35408); test: as above; conditions: for remaining activity at 10 µM / remaining activity at 1 µM / remaining activity at 0.1 µM / remaining activity at 0.01 µM / remaining activity at 0.001 µM / remaining activity at 0.0001 µM / remaining activity at 10 pM / remaining activity at 1 pM: 1 h; for remaining activity at 0.1 µM: Grapiprant log([M]) -7
T1 construct: The full-length EP2 or EP4 was cloned into the pcDNA3.1 vector; FLAG (N); expressed in transfected cells; host or cells: AD293 cells
T1 sequence (P35408 whole entry): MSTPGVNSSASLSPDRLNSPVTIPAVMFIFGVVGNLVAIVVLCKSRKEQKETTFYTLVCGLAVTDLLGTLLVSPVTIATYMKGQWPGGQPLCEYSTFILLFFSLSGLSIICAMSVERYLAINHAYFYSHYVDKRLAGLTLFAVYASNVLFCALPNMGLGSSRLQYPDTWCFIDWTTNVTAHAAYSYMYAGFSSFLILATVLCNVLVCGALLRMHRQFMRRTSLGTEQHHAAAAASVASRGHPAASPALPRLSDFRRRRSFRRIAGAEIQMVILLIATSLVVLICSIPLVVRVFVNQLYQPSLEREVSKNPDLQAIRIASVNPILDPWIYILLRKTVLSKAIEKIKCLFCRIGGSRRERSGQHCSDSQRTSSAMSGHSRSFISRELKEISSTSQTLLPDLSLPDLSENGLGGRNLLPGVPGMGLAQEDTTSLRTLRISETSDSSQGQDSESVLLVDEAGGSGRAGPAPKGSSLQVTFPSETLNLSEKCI
Protocol: as §1, §2, §3

[3] = molecular target: T2, constitutively active EP4 WT (Homo sapiens, UniProt P35408); test: GloSensor cAMP assay, inhibition of constitutive activity
T2 construct: The full-length EP2 or EP4 was cloned into the pcDNA3.1 vector (Invitrogen), incorporating an N-terminal FLAG tag; expressed in transfected cells; host or cells: AD293
T2 sequence (P35408 whole entry): as above
Protocol: as §1, §2, §3

[4] = molecular target: T3, constitutively active EP4 V320A (Homo sapiens, UniProt P35408, V320A); test: as above; conditions: for ΔpIC50: no PGE2, pIC50 mutant - pIC50 WT, mean
T3 construct: The full-length EP2 or EP4 was cloned into the pcDNA3.1 vector (Invitrogen), incorporating an N-terminal FLAG tag; expressed in transfected cells; host or cells: AD293
T3 sequence (P35408 whole entry V320A): as the sequence (P35408 whole entry) above, with V320A counted along it
Protocol: as §1, §2, §3

[5] = molecular target: T4, constitutively active EP4 V72A (Homo sapiens, UniProt P35408, V72A); test: as above; conditions: for ΔpIC50: no PGE2, pIC50 mutant - pIC50 WT, mean
T4 construct: The full-length EP2 or EP4 was cloned into the pcDNA3.1 vector (Invitrogen), incorporating an N-terminal FLAG tag; expressed in transfected cells; host or cells: AD293
T4 sequence (P35408 whole entry V72A): as the sequence (P35408 whole entry) above, with V72A counted along it
Protocol: as §1, §2, §3

[6] = molecular target: T5, constitutively active EP4 S319A (Homo sapiens, UniProt P35408, S319A); test: as above; conditions: for ΔpIC50: no PGE2, pIC50 mutant - pIC50 WT, mean
T5 construct: The full-length EP2 or EP4 was cloned into the pcDNA3.1 vector (Invitrogen), incorporating an N-terminal FLAG tag; expressed in transfected cells; host or cells: AD293
T5 sequence (P35408 whole entry S319A): as the sequence (P35408 whole entry) above, with S319A counted along it
Protocol: as §1, §2, §3

Structure (SMILES): CCc1nc2c(C)nc(C)cc2n1-c1ccc(CCNC(=O)NS(=O)(=O)c2ccc(C)cc2)cc1 [Grapiprant]
- remaining activity at 10 µM ([1]; read-out: % cAMP activity on EP2 (normalized to PF-04418948), ligand log([M]) -5): 90.7%
- remaining activity at 1 µM ([1]; read-out: % cAMP activity on EP2 (normalized to PF-04418948), ligand log([M]) -6): 105%
- remaining activity at 0.1 µM ([1]; read-out: % cAMP activity on EP2 (normalized to PF-04418948), ligand log([M]) -7): 107%
- remaining activity at 0.01 µM ([1]; read-out: % cAMP activity on EP2 (normalized to PF-04418948), ligand log([M]) -8): 113%
- remaining activity at 0.001 µM ([1]; read-out: % cAMP activity on EP2 (normalized to PF-04418948), ligand log([M]) -9): 115%
- remaining activity at 0.0001 µM ([1]; read-out: % cAMP activity on EP2 (normalized to PF-04418948), ligand log([M]) -10): 114%
- remaining activity at 10 pM ([1]; read-out: % cAMP activity on EP2 (normalized to PF-04418948), ligand log([M]) -11): 120%
- remaining activity at 1 pM ([1]; read-out: % cAMP activity on EP2 (normalized to PF-04418948), ligand log([M]) -12): 107%
- IC50 [2]: 35.5 nM
- remaining activity at 10 µM ([2]; Grapiprant log([M]) -5, read-out: % cAMP activity (normalized to WT)): 2.75%
- remaining activity at 1 µM ([2]; Grapiprant log([M]) -6, read-out: % cAMP activity (normalized to WT)): 3.71%
- remaining activity at 0.1 µM ([2]; read-out: % cAMP activity (normalized to WT)): 21%
- remaining activity at 0.1 µM ([2]; single experiments 1st-3rd, Fig. S7C, read-out: % cAMP activity (normalized to WT)): 30.1%
- remaining activity at 0.01 µM ([2]; Grapiprant log([M]) -8, read-out: % cAMP activity (normalized to WT)): 83.1%
- remaining activity at 0.01 µM ([2]; Grapiprant log([M]) -8, single experiments 1st-3rd, Fig. S7C, read-out: % cAMP activity (normalized to WT)): 88.1%
- remaining activity at 0.001 µM ([2]; Grapiprant log([M]) -9, read-out: % cAMP activity (normalized to WT)): 96.3%
- remaining activity at 0.0001 µM ([2]; Grapiprant log([M]) -10, read-out: % cAMP activity (normalized to WT)): 90.2%
- remaining activity at 0.0001 µM ([2]; Grapiprant log([M]) -10, single experiments 1st-3rd, Fig. S7C, read-out: % cAMP activity (normalized to WT)): 96.7%
- remaining activity at 10 pM ([2]; Grapiprant log([M]) -11, read-out: % cAMP activity (normalized to WT)): 97.9%
- remaining activity at 10 pM ([2]; Grapiprant log([M]) -11, single experiments 1st-3rd, Fig. S7C, read-out: % cAMP activity (normalized to WT)): 101%
- remaining activity at 1 pM ([2]; Grapiprant log([M]) -12, read-out: % cAMP activity (normalized to WT)): 103%
- remaining activity at 1 pM ([2]; Grapiprant log([M]) -12, single experiments 1st-3rd, Fig. S7C, read-out: % cAMP activity (normalized to WT)): 93.3%
- remaining activity at 10 µM ([2]; read-out: % cAMP activity EP4 (normalized to Grapiprant), ligand log([M]) -5, single experiments 1st-3rd, Fig. S1A): 2.69%
- remaining activity at 1 µM ([2]; read-out: % cAMP activity EP4 (normalized to Grapiprant), ligand log([M]) -6, single experiments 1st-3rd, Fig. S1A): 5.1%
- remaining activity at 0.01 µM ([2]; read-out: % cAMP activity EP4 (normalized to Grapiprant), ligand log([M]) -8, single experiments 1st-3rd, Fig. S1A): 94.2%
- remaining activity at 0.001 µM ([2]; read-out: % cAMP activity EP4 (normalized to Grapiprant), ligand log([M]) -9, single experiments 1st-3rd, Fig. S1A): 97%
- remaining activity at 0.0001 µM ([2]; read-out: % cAMP activity EP4 (normalized to Grapiprant), ligand log([M]) -10, single experiments 1st-3rd, Fig. S1A): 100%
- remaining activity at 10 pM ([2]; read-out: % cAMP activity EP4 (normalized to Grapiprant), ligand log([M]) -11, single experiments 1st-3rd, Fig. S1A): 93.5%
- remaining activity at 1 pM ([2]; read-out: % cAMP activity EP4 (normalized to Grapiprant), ligand log([M]) -12, single experiments 1st-3rd, Fig. S1A): 102%
- cAMP activity (∆pIC50 from EP4 WT) ([2]; Grapiprant, WT, single experiments 1st-3rd): 0.1372 and 0.1162 and -0.1508
- antagonism profile EP4 versus EP2 (in words) ([2]; cAMP accumulation assay upon PGE2 stimulation, Appendix Fig. S1A): selective antagonists of EP2 and EP4, respectively; also recorded: strong selectivity
- IC50 [3]: 4.27 nM
- remaining activity at 0.1 µM ([3]; 1 h, Grapiprant log([M]) -7.00, EP4-WT, read-out: % cAMP activity (normalized to WT)): 4.26%
- remaining activity at 0.01 µM ([3]; 1 h, Grapiprant log([M]) -8.00, EP4-WT, read-out: % cAMP activity (normalized to WT)): 24.2%
- remaining activity at 0.001 µM ([3]; 1 h, Grapiprant log([M]) -9.00, EP4-WT, read-out: % cAMP activity (normalized to WT)): 84.9%
- remaining activity at 0.0001 µM ([3]; 1 h, Grapiprant log([M]) -10.00, EP4-WT, read-out: % cAMP activity (normalized to WT)): 92.5%
- remaining activity at 10 pM ([3]; 1 h, Grapiprant log([M]) -11.00, EP4-WT, read-out: % cAMP activity (normalized to WT)): 101%
- remaining activity at 1 pM ([3]; 1 h, Grapiprant log([M]) -12.00, EP4-WT, read-out: % cAMP activity (normalized to WT)): 101%
- Grapiprant cAMP activity (∆pIC50 from EP4 WT) ([3]; WT, single experiments 1st-3rd): 0.061 and -0.077 and -0.012
- IC50 [4]: 11.2 nM
- remaining activity at 0.1 µM ([4]; 1 h, Grapiprant log([M]) -7.00, EP4-V320A, read-out: % cAMP activity (normalized to WT)): 7.66%
- remaining activity at 0.01 µM ([4]; 1 h, Grapiprant log([M]) -8.00, EP4-V320A, read-out: % cAMP activity (normalized to WT)): 35.4%
- remaining activity at 0.001 µM ([4]; 1 h, Grapiprant log([M]) -9.00, EP4-V320A, read-out: % cAMP activity (normalized to WT)): 48.1%
- remaining activity at 0.0001 µM ([4]; 1 h, Grapiprant log([M]) -10.00, EP4-V320A, read-out: % cAMP activity (normalized to WT)): 61.4%
- remaining activity at 10 pM ([4]; 1 h, Grapiprant log([M]) -11.00, EP4-V320A, read-out: % cAMP activity (normalized to WT)): 56.1%
- remaining activity at 1 pM ([4]; 1 h, Grapiprant log([M]) -12.00, EP4-V320A, read-out: % cAMP activity (normalized to WT)): 50.8%
- Grapiprant cAMP activity (∆pIC50 from EP4 WT), Mean ([4]; V320A, Mean): -0.388
- ΔpIC50 [4]: -0.39 ± 0.12
- ΔpIC50 ([4]; listed as grapiprant): reduced the potency
- IC50 [5]: 18.6 nM
- remaining activity at 0.1 µM ([5]; 1 h, Grapiprant log([M]) -7.00, EP4-V72A, read-out: % cAMP activity (normalized to WT)): 8.15%
- remaining activity at 0.01 µM ([5]; 1 h, Grapiprant log([M]) -8.00, EP4-V72A, read-out: % cAMP activity (normalized to WT)): 28%
- remaining activity at 0.001 µM ([5]; 1 h, Grapiprant log([M]) -9.00, EP4-V72A, read-out: % cAMP activity (normalized to WT)): 48.8%
- remaining activity at 0.0001 µM ([5]; 1 h, Grapiprant log([M]) -10.00, EP4-V72A, read-out: % cAMP activity (normalized to WT)): 35.6%
- remaining activity at 10 pM ([5]; 1 h, Grapiprant log([M]) -11.00, EP4-V72A, read-out: % cAMP activity (normalized to WT)): 41%
- remaining activity at 1 pM ([5]; 1 h, Grapiprant log([M]) -12.00, EP4-V72A, read-out: % cAMP activity (normalized to WT)): 39%
- Grapiprant cAMP activity (∆pIC50 from EP4 WT), Mean ([5]; V72A, Mean): -0.652
- Grapiprant cAMP activity (∆pIC50 from EP4 WT) ([5]; V72A, single experiments 1st-3rd): -0.771 and -0.507 and -0.679
- ΔpIC50 [5]: -0.65 ± 0.08
- ΔpIC50 ([5]; listed as grapiprant): reduced the potency
- IC50 [6]: 16.6 nM
- remaining activity at 0.1 µM ([6]; 1 h, Grapiprant log([M]) -7.00, EP4-S319A, read-out: % cAMP activity (normalized to WT)): 23.1%
- remaining activity at 0.01 µM ([6]; 1 h, Grapiprant log([M]) -8.00, EP4-S319A, read-out: % cAMP activity (normalized to WT)): 84.7%
- remaining activity at 0.001 µM ([6]; 1 h, Grapiprant log([M]) -9.00, EP4-S319A, read-out: % cAMP activity (normalized to WT)): 130%
- remaining activity at 1 pM ([6]; 1 h, Grapiprant log([M]) -12.00, EP4-S319A, read-out: % cAMP activity (normalized to WT)): 118%
- Grapiprant cAMP activity (∆pIC50 from EP4 WT), Mean ([6]; S319A, Mean): -0.598
- ΔpIC50 [6]: -0.60 ± 0.09
- ΔpIC50 ([6]; listed as grapiprant): reduced the potency
